The target of data set [1] is T1, Ty1 PR-His6 (Saccharomyces cerevisiae, UniProt Q07793).
T1 construct: made in house; host or cells: E. coli BL21(DE3), pET11a Gag-PR-His6 (gift of J.F. Lawler); soluble fraction, Ni-chelate chromatography, autoprocessed
T1 sequence (Q07793 402-582 limits assumed): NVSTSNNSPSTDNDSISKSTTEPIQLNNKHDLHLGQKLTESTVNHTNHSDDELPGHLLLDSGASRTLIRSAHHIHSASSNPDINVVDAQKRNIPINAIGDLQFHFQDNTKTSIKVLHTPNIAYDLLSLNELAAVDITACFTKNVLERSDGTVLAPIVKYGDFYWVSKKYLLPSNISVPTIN
Put plainly: Inhibition study of Ty1 PR-His6. It is filed as biochemical. As to conditions: Ty1 PR-His6 (400–1600 nM), VPTIN*NVHTS 0.44 mM, inhibitor ≥100 nM final, DMSO, peptide buffer A, 2 h at 30°C. As to the method: Ty1 PR-His6 activity was measured in the presence of various HIV-1 protease inhibitors. […] To study effect of inhibitors on proteolytic activity, reaction mixtures contained 5 μl purified Ty1 PR-His6 (400–1600 nM), 10 μl peptide buffer A, 4.8 μl oligopeptide substrate (VPTIN*NVHTS, 0.44 mM), and 0.2 μl inhibitor. For screening, inhibitors were dissolved in DMSO to have ≥100 nM final concentration. DMSO solution containing no inhibitor was used as control. Reaction mixtures were incubated for 2 h at 30°C.

A further data set has as its system XMRV PR. As to conditions: ref [45]; cited from earlier work. The source says:
Despite the fact that out of the tested inhibitors only acet ...

The next data set deals with T2, Ty1 PR (Saccharomyces cerevisiae, UniProt Q07793).
T2 construct: the protease domain of Ty1 is unusually long, consisting of 181 residues; made in house; host or cells: E. coli BL21(DE3), pET11a
T2 sequence (Q07793 402-582 limits assumed): T1 sequence (Q07793 402-582 limits assumed)
Kind of data set: Oligopeptide-based proteolytic assay (HPLC), untagged Ty1 PR. Particulars: peptide buffer A pH 7.0, 30 °C; for cleavage (in words): Ty1 PR, oligopeptide substrate 2 mg/ml stock, 2 up to 5 h. The class given is biochemical. As to the method: (§1) The oligopeptides used in the proteolytic assays (Table 1A) were synthesized as previously described. Reaction mixtures contained 10 μl peptide buffer A (20 mM PIPES, 100 mM NaCl, 0.5% Nonidet P-40, 10% glycerol, 2 mM dithiotreitol (DTT), pH 7.0), 5 μl purified Ty1 PR-His6 (processed from Ty1 Gag-PR-His6) or Ty1 PR, and 5 μl oligopeptide substrate (2 mg/ml) dissolved in water. Reaction mixtures were incubated for the different experiments from 2 up to 5 h at 30°C. The reactions were stopped by the addition of 180 μl 1% trifluoroacetic acid (TFA).
(§2) The products were separated by an HPLC-based method using a 0–100% water-acetonitrile gradient in the presence of TFA on Merck Hitachi instrument. For enzyme kinetic measurements, VPTIN*NVHTS oligopeptide substrate (representing Ty1 PR/IN cleavage site) was used at 0.2–1.2 mM; Ty1 PR (400–1600 nM) was incubated with the substrate at 30 °C for 2 h, whereas Ty1 PR-His6 (500–1500 nM) was incubated for 2.5 h. Kinetic parameters (shown in Table 1A) were determined by fitting the data obtained at less than 20% substrate hydrolysis to the Michaelis-Menten equation using GraphPad Prism version 5.00 for Windows (GraphPad Software, La Jolla California USA, www.graphpad.com). Statistical significances were determined by GraphPad QuickCalcs (https://www.graphpad.com/quickcalcs/ttest2).
(§3) For investigation of optimal conditions for enzyme folding, Ty1 PR was dialyzed against various buffers and buffer combinations that have been shown previously to be suitable for retroviral protease activity. In peptide-based assays, both protease and oligopeptide solutions were added to the buffer, and the reaction mixtures were incubated at 30°C, and stopped by the addition TFA. The mixtures were then injected onto a reversed-phase chromatography column in order to separate substrates and cleavage products, the substrate turnover was determined by integration of peak areas.

For data set [2], the target named is T1, Ty1 PR-His6. Put plainly: Oligopeptide-based proteolytic assay (HPLC), Ty1 PR-His6. The class given is biochemical. As to conditions: for cleavage (in words): Ty1 PR-His6, oligopeptide substrate 2 mg/ml stock, 2 up to 5 h. On the procedure:
as §1, §2, §3

The subject of the next data set is HFV PR. Particulars: ref [40], cited from earlier work; for kcat/Km: buffer optimized for that protease. The source says: Similarly low catalytic activities were also observed previously for HFV and the Gag-encoded Avian myeloblastosis virus (AMV) proteases. Both the untagged, and the His6-tagged (self-processed) PRs cleaved th ...
A further data set relates to HIV-1 PR. As to conditions: cited from earlier work. The source says: For instance, the optimal pH of HFV protease is 6.6–6.8 [40] while that of HIV-1 PR is between 4 and 6 [41]. […] Higher sensitivity to urea implies lower dimer stability for Ty1 protease, the possible structural background of this difference is discussed later in the In silico structural analysi ... || (+ 1 further places)

Data set [3] relates to Copia transposon protease. Particulars: ref [17], cited from earlier work. On the procedure: The dependence of enzyme activity on ionic strength was studied, and highest activities were measured at 1.5–2 M NaCl concentration (Fig 4A). […] For instance, the optimal pH of HFV protease is 6.6–6.8 [40] while that of HIV-1 PR is between 4 and 6 [41].
The mark [4] stands for this setting: peptide buffer A pH 7.0, 30 °C, HPLC.
[5] abbreviates: Ty1 PR (400–1600 nM), substrate 0.2–1.2 mM, 2 h, SD (n≥2).
The mark [6] stands for this setting: Ty1 PR-His6 (500–1500 nM), substrate 0.2–1.2 mM, peptide buffer A pH 7.0, 30 °C, 2.5 h, HPLC, SD (n≥2).

Values joined by “and” are separate entries in the source; they are usually repeats but may differ in a detail not shown here. Identical values can stand only once. Where only a bound is given, the exact number is not on record here.

Turning to `Cc1cccc(C)c1OCC(=O)N[C@@H](Cc1ccccc1)[C@@H](O)C[C@H](Cc1ccccc1)NC(=O)[C@H](C(C)C)N1CCCNC1=O` [lopinavir], on Ty1 PR-His6 [1], the “inhibition of proteolytic activity (in words)” value was “unable to inhibit”. Further, the “inhibition (in words)” value with XMRV PR is listed as “able to inhibit”.
As to `CC(C)(C)NC(=O)[C@@H]1C[C@@H]2CCCC[C@@H]2CN1C[C@@H](O)[C@H](Cc1ccccc1)NC(=O)[C@H](CC(N)=O)NC(=O)c1ccc2ccccc2n1` [saquinavir], the “inhibition of proteolytic activity (in words)” value against Ty1 PR-His6 [1] is listed as “unable to inhibit”.
On to “TARAH*NVSTS [synthetic oligopeptide substrate representing the Gag/PR cleavage site of Ty1]”, for which the “cleavage (in words)” value on Ty1 PR and at Ty1 PR-His6 [2] (setting [4]) was “no cleavage was observed” each time. Further, the “hydrolysis (in words)” value in the data set with HFV PR was “not hydrolyzed”.
For `CC(C)CN(C[C@@H](O)[C@H](Cc1ccccc1)NC(=O)O[C@H]1CCOC1)S(=O)(=O)c1ccc(N)cc1` [amprenavir], at Ty1 PR-His6 [1], the “inhibition of proteolytic activity (in words)” value is on record as “unable to inhibit”. For the same molecule, the “inhibition (in words)” value in the data set on XMRV PR is recorded as “able to inhibit”.
Take “VPTIN*NVHTS [synthetic oligopeptide substrate representing the PR/IN cleavage site of Ty1]”: the Km (commonly the substrate concentration at which the rate is half of its maximum) was 210 ± 70 µM at Ty1 PR (setting [5]), 250 ± 90 µM on Ty1 PR-His6 [2] (setting [6]) and 30 ± 10 µM in the data set on HFV PR. The kcat (commonly the maximal rate divided by the concentration of active sites) is 0.006 ± 0.001 s⁻¹ on Ty1 PR (setting [5]), 0.009 ± 0.001 s⁻¹ at Ty1 PR-His6 [2] (setting [6]) and 0.0002 ± 0.00003 s⁻¹ in the data set on HFV PR. For the same molecule, the kcat/Km (as a rule, the second-order rate constant that governs catalysis at low substrate concentration) at Ty1 PR (setting [5]) was 28 ± 10.5 M⁻¹ s⁻¹; on Ty1 PR-His6 [2] (setting [6]), 36 ± 13.2 M⁻¹ s⁻¹; in the data set on HFV PR, 7 M⁻¹ s⁻¹ and 7 ± 2.4 M⁻¹ s⁻¹. Also, the “cleavage (in words)” value at Ty1 PR and at Ty1 PR-His6 [2] (setting [4]) was “cleaved” throughout. For the same molecule, on Ty1 PR-His6 [2] (Ty1 PR-His6 versus untagged Ty1 PR), the “difference of specificity constants between untagged Ty1 PR and Ty1 PR-His6 (in words)” value is reported as “not significant statistically”.
With `O=C1N(Cc2ccc(CO)cc2)[C@H](Cc2ccccc2)[C@H](O)[C@@H](O)[C@@H](Cc2ccccc2)N1Cc1ccc(CO)cc1` [DMP-323], on Ty1 PR-His6 [1], the “inhibition of proteolytic activity (in words)” value is on record as “unable to inhibit”. Also, the “inhibition (in words)” value in the data set on XMRV PR was “able to inhibit”.
Consider T26S mutant HIV-1 protease, for which, in the data set with HIV-1 PR (T26S mutant, ref [49]), the “specific activity compared to wild-type (in words)” value is “lower specific activity”.
On to “IHLIA*AVKAV [synthetic oligopeptide substrate representing the IN/RT cleavage site of Ty1]”, for which, at Ty1 PR, the “cleavage (in words)” value is recorded as “no cleavage was observed”. Further, the “cleavage (in words)” value on Ty1 PR-His6 [2] (setting [4]) is “no cleavage was observed”. Also, in the data set on HFV PR, the kcat/Km is 2 ± 0.4 M⁻¹ s⁻¹, the Km was 1000 ± 160 µM and the kcat is 0.0020 ± 0.0002 s⁻¹.
For `CCC[C@@]1(CCc2ccccc2)CC(O)=C([C@H](CC)c2cccc(NS(=O)(=O)c3ccc(C(F)(F)F)cn3)c2)C(=O)O1` [tipranavir], the “inhibition of proteolytic activity (in words)” value at Ty1 PR-His6 [1] is on record as “unable to inhibit”. Further, the “inhibition (in words)” value with XMRV PR is “able to inhibit”.
`Cc1c(O)cccc1C(=O)N[C@@H](CSc1ccccc1)[C@H](O)CN1C[C@H]2CCCC[C@H]2C[C@H]1C(=O)NC(C)(C)C` [nelfinavir]: at Ty1 PR-His6 [1], the “inhibition of proteolytic activity (in words)” value was “unable to inhibit”.
With “HIV-1 PR: human immunodeficiency virus type 1 protease”, the “activity at 37°C (in words)” value in the data set on HIV-1 PR (HIV-1 PR, 37°C, ref [41]) is “highly active”. For the same molecule, the “UC50 (urea)” value with HIV-1 PR (HIV-1 PR, ref [29]) is listed as 1.47 M.
Regarding `CC(C)CN(C[C@@H](O)[C@H](Cc1ccccc1)NC(=O)O[C@H]1CO[C@H]2OCC[C@H]21)S(=O)(=O)c1ccc(N)cc1` [darunavir], at Ty1 PR-His6 [1], the “inhibition of proteolytic activity (in words)” value was “unable to inhibit”. The “inhibition (in words)” value in the data set with XMRV PR is listed as “able to inhibit”.
In the case of `COC(=O)N[C@H](C(=O)N[C@@H](Cc1ccccc1)[C@@H](O)CN(Cc1ccc(-c2ccccn2)cc1)NC(=O)[C@@H](NC(=O)OC)C(C)(C)C)C(C)(C)C` [atazanavir], the “inhibition of proteolytic activity (in words)” value against Ty1 PR-His6 [1] was “unable to inhibit”. Moreover, the “inhibition (in words)” value in the data set with XMRV PR is “able to inhibit”.

B1: Copia transposon protease: Copia transposon protease of D. melanogaster (protein, UniProt P04146 271-1409, looked up)
Copia protease: IAFMVKEVNNTSVMDNCGFVLDSGASDHLINDESLYTDSVEVVPPLKIAVAKQGEFIYATKRGIVRLRNDHEITLEDVLFCKEAAGNLMSVKRLQEAGMSIEFDKSGVTISKNGLMVVKNSGMLNNVPVINFQAYSINAKHKNNFRLWHERFGHISDGKLLEIKRKNMFSDQSLLNNLELSCEICEPCLNGKQARLPFKQLKDKTHIKRPLFVVHSDVCGPITPVTLDDKNYFVIFVDQFTHYCVTYLIKYKSDVFSMFQDFVAKSEAHFNLKVVYLYIDNGREYLSNEMRQFCVKKGISYHLTVPHTPQLNGVSERMIRTITEKARTMVSGAKLDKSFWGEAVLTATYLINRIPSRALVDSSKTPYEMWHNKKPYLKHLRVFGATVYVHIKNKQGKFDDKSFKSIFVGYEPNGFKLWDAVNEKFIVARDVVVDETNMVNSRAVKFETVFLKDSKESENKNFPNDSRKIIQTEFPNESKECDNIQFLKDSKESENKNFPNDSRKIIQTEFPNESKECDNIQFLKDSKESNKYFLNESKKRKRDDHLNESKGSGNPNESRESETAEHLKEIGIDNPTKNDGIEIINRRSERLKTKPQISYNEEDNSLNKVVLNAHTIFNDVPNSFDEIQYRDDKSSWEEAINTELNAHKINNTWTITKRPENKNIVDSRWVFSVKYNELGNPIRYKARLVARGFTQKYQIDYEETFAPVARISSFRFILSLVIQYNLKVHQMDVKTAFLNGTLKEEIYMRLPQGISCNSDNVCKLNKAIYGLKQAARCWFEVFEQALKECEFVNSSVDRCIYILDKGNINENIYVLLYVDDVVIATGDMTRMNNFKRYLMEKFRMTDLNEIKHFIGIRIEMQEDKIYLSQSAYVKKILSKFNMENCNAVSTPLPSKINYELLNSDEDCNTPCRSLIGCLMYIMLCTRPDLTTAVNILSRYSSKNNSELWQNLKRVLRYLKGTIDMKLIFKKNLAFENKIIGYVDSDWAGSEIDRKSTTGYLFKMFDFNLICWNTKRQNSVAASSTEAEYMALFEAVREALWLKFLLTSINIKLENPIKIYEDNQGCISIANNPSCHKRAKHIDIKYHFAREQVQNNVICLEYIPTENQLADIFTKPLPAARFVELRDKLGLLQDDQSNAE
modifications: Copia protease
notes: Copia transposon protease of D. melanogaster
In the case of B1, in data set [3] (20–70°C temperature range), the relative activity is ≥ 50%. Besides, in data set [3] (Copia transposon protease), the “NaCl concentration of highest activity” value is given as 2 M, the “pH at which synthetic substrate is cleaved most efficiently” value is 4.0 and the “temperature of highest activity” value was 70 °C.

(Values after article PMC6952103, “Biochemical characterization of Ty1 retrotransposon protease” (PLoS ONE, 2020).)
